The experiment addresses T1, GST-tagged KRAS-G12D (2-169) (Homo sapiens, UniProt P01116, G12D).
T1 construct: GST-tagged KRAS-G12D (2-169, Reaction Biology, MSC-11-539); purchased Reaction Biology MSC-11-539 (KRAS G12D); MSC-11-502 (SOS1cat)
Put plainly: Nucleotide exchange assay (NEA), SOS-mediated, HTRF, KRAS G12D. The class given is biochemical. The note with it: Table 4; IC50 extracted at 30 min. A digest of the protocol:
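IC50 values come from 4-parameter fits at the 30 min time point of an SOS-driven exchange read by HTRF, normalised to DMSO (0%) and SOS-free blank (100%). Final reaction: 5 nM GST-KRAS-G12D (2-169), 20 nM SOScat, 150 nM fluorescent GTP-DY-647P1, after 1 h RT compound preincubation with KRAS and Tb-cryptate anti-GST.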
In general terms: TR-FRET usually uses a lanthanide donor and a delayed reading to cut background.

T1 sequence (P01116 2-169 isoform P01116-2 G12D): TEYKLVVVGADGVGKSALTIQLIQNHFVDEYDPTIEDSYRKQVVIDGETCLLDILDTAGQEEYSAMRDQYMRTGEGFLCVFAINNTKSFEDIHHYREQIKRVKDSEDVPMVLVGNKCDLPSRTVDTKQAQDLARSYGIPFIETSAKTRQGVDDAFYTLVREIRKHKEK

Regarding `N#Cc1c(N2C[C@H]3CC[C@@H](C2)N3)nc(OCC2(CN3CCOCC3)CC2)nc1N1CC2(C1)SCc1sc(N)c(C#N)c12` [Compound 100, 2-amino-1′-[5-cyano-6-[(1R,5S)-3,8-diazabicyclo[3.2.1]octan-3-yl]-2-[[1-(morpholinomethyl)cyclopropyl]methoxy]pyrimidin-4-yl]spiro[6H-thieno[2,3-c]thiophene-4,3′-azetidine]-3-carbonitrile], the IC50 was < 10 nM.
As to `N#Cc1c(N2C[C@H]3CC[C@@H](C2)N3)nc(OCC2(CN3CCOCC3)CC2)nc1N1CC2(C1)c1c(sc(N)c1C#N)CC2F` (stereo partly drawn) [Compound 101, 2-amino-1′-[5-cyano-6-[(1R,5S)-3,8-diazabicyclo[3.2.1]octan-3-yl]-2-[[1-(morpholinomethyl)cyclopropyl]methoxy]pyrimidin-4-yl]-5-fluoro-spiro[5,6-dihydrocyclopenta[b]thiophene-4,3′-azetidine]-3-carbonitrile], the IC50 was < 10 nM.
Take `Cc1n[nH]nc1COc1nc(N2C[C@H]3CC[C@@H](C2)N3)c(C#N)c(N2CC3(CCc4sc(N)c(C#N)c43)C2)n1` [Compound 108]: the IC50 was 10 to 100 nM.

The IC50 is the concentration needed to halve the response being measured. A lower IC50 goes with greater potency.
